Legend:
[1] = test system: Platelet rich plasma (PRP); test: Measurement of platelet-aggregation inhibiting effect (collagen-induced aggregation in platelet rich plasma); assay type: cell-based, Japanese white rabbit; settings: collagen-induced aggregation in rabbit PRP, preincubated at 37°C for 5 minutes, IC50 by method of Probit
Experimental: Test Example 2 Measurement of Platelet-aggregation Inhibiting Effect
Platelet rich plasma (PRP) was prepared and the platelet aggregation was measured in accordance with the method of Born and Cross as described in J. Phystol. 168, 178-195 (1963).
Blood of a Japanese white rabbit was drawn from a carotid artery of the rabbit. 9 parts by volume of the blood were mixed with 1 part by volume of a 3.8% aqueous solution of sodium citrate. The mixture was immediately centrifuged at 200 x g at 20 °C for 15 minutes, and PRP was obtained in the supernate. The number of platelets was calculated by use of an electronic cell counter (MEK-4150 manufactured by Nihon Kohden Kabushiki Kaisha). PRP with 55 X 10^4 or more platelets per 1 µl was employed in the tests.
10 µl of a test solution containing any of the aldehyde compounds of the present invention was added to 200 µl of PRP. The mixture was preincubated at 37°C for 5 minutes. To this mixture, 10 µl of collagen (22 µg/ml) was added to cause the aggregation. The aggregation was measured by Agricometer (NKK, PAT-4A).
In preparing the above test solution, each compound synthesized in the previously mentioned Examples as shown in Table 16 was dissolved in combined dimethyl sulfoxide and polyoxyethylene 60 hardened castor oil in ethanol. The mixture was diluted with an isotonic saline and the final concentration of the dimethyl sulfoxide and polyoxyethylene 60 hardened castor oil contained in the above mixture was adjusted to less than 1 %.
The inhibitory activity of each aldehyde compound on platelet aggregation was expressed by percentages compared with a blank test defined as 100% which was performed without any of the aldehyde compounds.
The amount of each aldehyde compound necessary to inhibit the platelet aggregation by 50% [IC50] was calculated according to the method of Probit.

Calpain = test: Measurement of calpain inhibiting effect (casein hydrolysis, IC50 by Probit); assay type: biochemical, Japanese white rabbit; settings: 30 °C for 30 minutes, pH = 7.5, IC50 by method of Probit
Experimental: Test Example 1 Measurement of Calpain Inhibiting Effect
Calpain was separated from a skeletal muscle of a Japanese white rabbit and partially purified according to the method of Tsuji and Imahori as described in J.Biochem. 90, 233-240 (1981), whereby the calpain for use in a test for investigating the calpain inhibiting effect (i.e., the inhibitory effect on calpain activity) of the aldehyde compounds according to the present invention was prepared.
The calpain inhibiting effect was measured in accordance with the method of Yoshimura et al. as described in J. Biol. Chem. 258, 8883-8889 (1983).
Each assay mixture was prepared by mixing 0.05 ml of a 4% casein solution, 0.05 ml of a 50 mM cysteine solution, 0.05 ml of a calpain solution, 0.025 ml of purified water, 0.025 ml of a 10% dimethyl sulfoxide solution containing each compound shown in Table 15 and 0.25 ml of a 200 mM imidazole hydrochloric acid buffer solution (pH = 7.5).
The thus prepared assay mixture was preincubated at 30 ° C for 3 minutes. The reaction was started by the addition of 0.05 ml of a 50 mM calcium chloride solution to the above mixture. After the incubation at 30 °C for 30 minutes, the reaction was terminated by the addition of 0.5 ml of 5% trichloroacetic acid.
The amount of a trichloroacetic-acid-soluble protein produced by hydrolysis of casein by calpain was measured by the spectrophotometric analysis in accordance with the method of Ross and Schatz as described in Anal. Biochem. 54, 304-306 (1973), and the absorbance (a) of each sample was measured.
The absorbance (b) of a blank sample which was treated similarly without any of the aldehyde compounds of the present invention, dissolved in a 10% dimethyl sulfoxide solution, was measured.
The inhibition of calpain activity was calculated in accordance with the formula [(b-a)/b] X 100, and the amount of each aldehyde compound necessary to inhibit calpain activity by 50% [IC50] was calculated according to the method of Probit.

a-chymotrypsin = a-chymotrypsin (Bos taurus, UniProt P00766); test: Measurement of inhibitory effect on a-chymotrypsin (glutaryl-L-phenylalanine-p-nitroanilide substrate); assay type: biochemical; settings: a-chymotrypsin activity, 25 ° C, pH = 7.8
Experimental: Test Example 3 Measurement of Inhibitory Effect on Protease other than Calpain
(2) Measurement of Inhibitory Effect on a-Chymotrypsin
The inhibitory effect on a-chymotrypsin was measured by a partially modified method of Erlanger, B. F. as described in Ach. Biochem. Biophys. 115, 206-210 (1966). […]
The mixture was preincubated at 25 ° C for 3 minutes. […] The increase of 405 nm absorbance was measured at 25 ° C with time, and the transition rate (a) of the absorbance per min was calculated.
The rate (b) of the absorbance of a blank sample treated similarly without any compound dissolved in combined dimethyl sulfoxide and 10% polyoxyethylene 60 hardened castor oil was measured. The inhibition of a-chymotrypsin activity was calculated in accordance with the formula [(b-a)/b] X 100, and the amount of each compound necessary to inhibit a-chymotrypsin activity by 50% [ICso] was calculated according to the method of Probit.
The inhibitory effect of SUAM-14541, a compound disclosed in Japanese Laid-Open Patent Application 1-121257, on a-chymotrypsin activity was measured for comparison.

[2] = Oryctolagus cuniculus, Platelet

IC50 (a-chymotrypsin) [nM] | Compound | IC50 [1] [nM] | IC50 (Calpain) [nM] | IC50 [1, 2] [nM]
– | L-N-benzyloxycarbonylleucine-(2S)-[1-formyl-3-(2-fluorophenyl)thio]propylamide [Compound No. 3-41] | 56000 | 270 | –
– | CC(C)C[C@H](OC(=O)Nc1ccccc1)C(=O)N[C@H](C=O)CCSCc1ccc(Cl)cc1 [2-27] | – | – | 65000
– | L-N-benzyloxycarbonylleucine-(2S)-[1-formyl-3-(4-chlorophenyl)thio]propylamide [Compound No. 3-43] | 52000 | 520 | –
– | O=C[C@H](Cc1ccccc1)NC(=O)C1CCN(C(=O)/C=C/c2ccc(Cl)cc2)CC1 [Compound No. 1-44, 1-(4-chlorocinnamoyl)piperidine-4-carboxylic acid-(1S)-(1-formyl-2-phenyl)ethylamide] | – | 990 | 47000
– | CC(C)C[C@H](OC(=O)Nc1ccccc1)C(=O)N[C@H](C=O)Cc1ccccc1 [Compound No. 2-19] | – | 590 | 4200
– | O=C[C@H](CCSCc1ccccc1Cl)NC(=O)C1CCN(C(=O)c2ccc3ccccc3c2)CC1 [1-51, 1-(2-naphthoyl)piperidine-4-carboxylic acid-(1S)-[1-formyl-3-(2-chlorobenzylthio)]propylamide] | – | 1400 | 10000
– | O=C[C@H](Cc1ccccc1)NC(=O)C1CCN(C(=O)/C=C/c2ccccc2)CC1 [Compound No. 1-27, 1-cinnamoylpiperidine-4-carboxylic acid-(1S)-(1-formyl-2-phenyl)ethylamide] | – | 750 | 2900
– | O=C[C@H](Cc1ccccc1)NC(=O)C1CCN(C(=O)/C=C/c2ccccc2Cl)CC1 [Compound No. 1-42, 1-(2-chlorocinnamoyl)piperidine-4-carboxylic acid-(1S)-(1-formyl-2-phenyl)ethylamide] | – | 350 | 23000
– | L-N-benzyloxycarbonylleucine-(2S)-[1-formyl-3-(2-chlorophenyl)thio]propylamide [Compound No. 3-42] | 94000 | 440 | –
– | O=C[C@H](Cc1ccc(OCc2ccccc2)cc1)NC(=O)C1CCN(C(=O)/C=C/c2ccccc2)CC1 [Compound No. 1-61, 1-cinnamoylpiperidine-4-carboxylic acid-(1S)-[1-formyl-2-(4-benzyloxyphenyl)]ethyl] | – | 880 | 9600
> 100000 | CC(C)C[C@H](NC(=O)OCc1ccccc1)C(=O)N[C@H](C=O)COCc1ccsc1 [Compound No. 3-6, L-N-benzyloxycarbonylleucine-(2S)-[1-formyl-2-(thiophene-3-ylmethyl)oxy]ethylamide] | – | – | –
– | O=C[C@H](CCSCc1ccc(Cl)cc1)NC(=O)C1CCN(C(=O)/C=C/c2ccccc2Cl)CC1 [1-62, 1-(2-chlorocinnamoyl)piperidine-4-carboxylic acid-(1S)-[1-formyl-3-(4-chlorobenzylthio)]-propylamide] | – | 1600 | 17000
– | O=C[C@H](Cc1ccccc1)NC(=O)C1CCN(C(=O)c2ccc(Cl)c(Cl)c2)CC1 [1-36, 1-(3,4-dichlorobenzoyl)piperidine-4-carboxylic acid-(1S)-(1-formyl-2-phenyl)ethylamide] | – | 780 | –
– | O=C[C@H](Cc1c[nH]c2ccccc12)NC(=O)C1CCN(C(=O)/C=C/c2ccccc2Cl)CC1 [Compound No. 1-58, 1-(2-chlorocinnamoyl)piperidine-4-carboxylic acid-(1S)-[1-formyl-2-(3-indolyl)]ethylamide] | – | 680 | 22000
